From patent US20070053834A1, “Radioligands for the TRP-M8 receptor and methods therewith” (priority 2003, published 2007) come the findings set out here.

The target of experiment [1] is T1, TRP-M8 receptor (Homo sapiens, UniProt Q7Z2W7). The experiment is described as follows: Patch-clamp whole-cell recordings in TRP-M8 transfected HEK cells. The conditions noted are these: whole-cell configuration, room temperature (20-23° C.). More on the design: expressed in transfected cells; host or cells: HEK (human embryonic kidney) cells, permanently transfected. Format: cell-based. An excerpt:
(§1) Cooling Actions on Skin. […] In Vitro Assays for TRP-M8 Activation. […] Brit. J Pharmacol. 2004 Feb; 141(4):737-45], and by A. K. Vogt-Eisele, D. Bura, H. Hatt, and E. T. Wei. [N-Alkylcarboxamide Cooling Agents: Activities on Skin and Cells with TRPM8 and TRPA1 Receptors. Acta Dermato-Venereol. 85: 468, 2005.] The data here were collected for the applicant by Dr. Afrodite Lourbakos of Unilever Research and Development, the Netherlands, using similar transfection methods and a FLIPR assay system. For the patch-clamp studies, using measurements of intracellular voltage changes, some of the data reported here were collected by Dr. Matthias Bödding of the University of the Saarland, and by Dr. Angela Vogt-Eisele of the Ruhr University at Bochum, Germany. FLIPR assay Human embryonic kidney (HEK) cells were permanently trausfected with plasmids containging the cDNA coding for the gene for the human TRP-M8 receptor. These cells were then incubated with a calcium fluorescence indicator (Fura-2) and incubated at either 29 or 37° C. These cells were then distributed into a 96-well fluorescence-plate image reader with automated drug dilution and computerized software for dose-response analysis. Cacium ion influx into cells after stimulation with compounds was quantified in fluorescence units. Compounds were dissolved in DMSO by ultrasonication to a 0.1 M solution. 5 μl of this stock was added to 5 mg of cyclodextrin and 5 ml of 140 Na-Tyrode, to achieve various final test concentrations.
Patch-Clamp Electrophysiological Recordings. HEK cells were prepared as above. Membrane currents were recorded in the whole-cell configuration using an EPC-9 amplifier (HEKA Elektronik, Lambrecht, Germany) as described previously (Bödding et al. 2002). […] Extracellular solution contained (in mM): 145 NaCl, 2 CaCl2, 2.8 KCl, 2 MgCl2, 11 glucose, 10 HEPES, adjusted to pH 7.2 with NaOH. Drugs were applied in the bath solution by a custom-made local perfusion system. The series resistance was compensated for 80 % and ranged between 5 and 10 MΩ. Currents were filtered using an 8-pole Bessel filter at 2.9 kHz and digitised at 100 μs. Voltage ramps (−110 mV to 90 mV in 50 ms) were applied at 0.5 Hz from a holding potential of −10 mV using PULSE software (HEKA Electronics). Several parameters such as capacitance, series resistance and holding current were monitored simultaneously at a slower rate (2 Hz) using the X-Chart display (HEKA Electronics). A liquid junction potential of 10 mV was applied to all voltages. All experiments were carried out at room temperature (20-23° C.). Internal solutions were kept on ice to minimize hydrolysis of ATP.
A general note: The patch-clamp technique gives a direct electrical read-out from membranes.

Experiment [2] has as its target T1, TRP-M8 receptor. In words: FLIPR calcium influx assay in HEK cells transfected with human TRP-M8. Format: cell-based. Set-up: expressed in transfected cells; host or cells: HEK (human embryonic kidney) cells, permanently transfected. The conditions noted are these: HEK cells with human TRP-M8, Fura-2, 29 or 37° C.
Description: as §1

T1 sequence (Q7Z2W7 whole entry): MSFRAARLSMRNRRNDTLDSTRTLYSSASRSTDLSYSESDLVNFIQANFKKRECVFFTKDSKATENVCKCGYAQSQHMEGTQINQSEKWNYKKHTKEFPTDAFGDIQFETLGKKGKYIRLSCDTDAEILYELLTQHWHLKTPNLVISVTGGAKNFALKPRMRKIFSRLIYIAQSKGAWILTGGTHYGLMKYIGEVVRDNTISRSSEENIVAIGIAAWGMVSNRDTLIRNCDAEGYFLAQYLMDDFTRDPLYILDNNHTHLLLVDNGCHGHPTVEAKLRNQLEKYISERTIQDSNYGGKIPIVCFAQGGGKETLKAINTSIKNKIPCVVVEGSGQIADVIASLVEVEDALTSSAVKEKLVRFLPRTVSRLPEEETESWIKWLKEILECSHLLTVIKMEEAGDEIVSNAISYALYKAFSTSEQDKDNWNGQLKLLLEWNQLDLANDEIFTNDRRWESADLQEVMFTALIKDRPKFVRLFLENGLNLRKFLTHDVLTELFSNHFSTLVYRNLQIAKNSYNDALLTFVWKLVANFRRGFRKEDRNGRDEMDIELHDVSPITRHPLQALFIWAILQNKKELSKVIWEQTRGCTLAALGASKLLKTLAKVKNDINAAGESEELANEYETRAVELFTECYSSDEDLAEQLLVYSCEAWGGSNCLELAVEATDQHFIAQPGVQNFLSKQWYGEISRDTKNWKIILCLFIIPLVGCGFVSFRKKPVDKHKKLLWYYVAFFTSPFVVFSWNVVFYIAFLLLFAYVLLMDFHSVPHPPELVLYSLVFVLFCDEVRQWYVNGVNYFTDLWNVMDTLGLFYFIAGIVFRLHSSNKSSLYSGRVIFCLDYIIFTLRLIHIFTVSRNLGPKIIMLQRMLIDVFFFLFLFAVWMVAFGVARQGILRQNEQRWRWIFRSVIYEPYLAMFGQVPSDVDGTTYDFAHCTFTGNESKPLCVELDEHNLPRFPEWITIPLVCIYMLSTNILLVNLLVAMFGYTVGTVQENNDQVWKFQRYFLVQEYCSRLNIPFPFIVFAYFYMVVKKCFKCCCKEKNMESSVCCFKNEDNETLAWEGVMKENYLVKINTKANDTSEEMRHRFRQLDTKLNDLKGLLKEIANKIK

Regarding `O=C1NC(c2cccc([N+](=O)[O-])c2)=CCN1c1ccccc1O` [icilin, reference compound], the EC50 was 1400 nM on TRP-M8 receptor [1] and 800 nM at TRP-M8 receptor [2].

The EC50 is the concentration giving half of the maximal effect.
